Assay results taken from PubChem BioAssay AID248 (DTP/NCI, 2004).
Inconclusive results and toxic doses are left out. No stated cut-off is given here; in the data, active means T/C of 150% or more; inactive means T/C below 125%.

System: L1210 leukemia ip in BDF1 mice, survival T/C
Assay: NCI In Vivo Anticancer Drug Screen. Data for tumor model L1210 Leukemia (intraperitoneal) in B6D2F1 (BDF1) mice
Details: endpoint: mean survival time, higher = longer survival
Method in brief: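 Transplanted-tumor mice were given test agent; controls received vehicle only. Survival readings from the two groups were divided (treated over control).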

[1] = dose: 100.0 mg/kg/injection, schedule: Q01DX009 (ip), vehicle: Klucel (hydroxypropylcellulose) (HPC)
[2] = dose: 200.0 mg/kg/injection, schedule: Q01DX009 (ip), vehicle: Klucel (hydroxypropylcellulose) (HPC)
[3] = dose: 100.0 mg/kg/injection, schedule: Q01DX009 (ip), vehicle: saline with Tween-80
[4] = dose: 100.0 mg/kg/injection, schedule: Q04DX002 (ip), vehicle: saline with Tween-80
[5] = dose: 200.0 mg/kg/injection, schedule: Q01DX009 (ip), vehicle: saline with Tween-80
[6] = dose: 200.0 mg/kg/injection, schedule: Q04DX002 (ip), vehicle: saline with Tween-80
[7] = dose: 100.0 mg/kg/injection, schedule: Q04DX002 (ip), vehicle: Klucel (hydroxypropylcellulose) (HPC)
[8] = dose: 200.0 mg/kg/injection, schedule: Q04DX002 (ip), vehicle: Klucel (hydroxypropylcellulose) (HPC)
[9] = dose: 100.0 mg/kg/injection, schedule: Q04DX003 (ip), vehicle: saline
[10] = dose: 200.0 mg/kg/injection, schedule: Q04DX003 (ip), vehicle: saline
[11] = dose: 400.0 mg/kg/injection, schedule: Q04DX003 (ip), vehicle: saline
[12] = dose: 200.0 mg/kg/injection, schedule: Q01DX009 (ip), vehicle: saline
[13] = dose: 400.0 mg/kg/injection, schedule: Q01DX009 (ip), vehicle: saline
[14] = dose: 100.0 mg/kg/injection, schedule: Q01DX001 (ip), vehicle: Klucel (hydroxypropylcellulose) (HPC)
[15] = dose: 200.0 mg/kg/injection, schedule: Q01DX001 (ip), vehicle: Klucel (hydroxypropylcellulose) (HPC)
[16] = dose: 400.0 mg/kg/injection, schedule: Q01DX001 (ip), vehicle: Klucel (hydroxypropylcellulose) (HPC)
[17] = dose: 100.0 mg/kg/injection, schedule: Q01DX009 (ip), vehicle: saline
[18] = dose: 100.0 mg/kg/injection, schedule: Q04DX003 (ip), vehicle: Klucel (hydroxypropylcellulose) (HPC)
[19] = dose: 200.0 mg/kg/injection, schedule: Q04DX003 (ip), vehicle: Klucel (hydroxypropylcellulose) (HPC)
[20] = dose: 400.0 mg/kg/injection, schedule: Q04DX003 (ip), vehicle: Klucel (hydroxypropylcellulose) (HPC)

Measured: T/C

O=[N+]([O-])/C=C/c1ccc2ccccc2c1
inactive: dose: 12.5 mg/kg/injection, schedule: Q01DX009 (ip), vehicle: carboxymethylcellulose (CMC) 104 % of control | dose: 25.0 mg/kg/injection, schedule: Q01DX009 (ip), vehicle: carboxymethylcellulose (CMC) 101 % of control | dose: 50.0 mg/kg/injection, schedule: Q01DX009 (ip), vehicle: Klucel (hydroxypropylcellulose) (HPC) 107 % of control | dose: 50.0 mg/kg/injection, schedule: Q01DX009 (ip), vehicle: carboxymethylcellulose (CMC) 100 % of control | dose: 100.0 mg/kg/injection, schedule: Q01DX001 (ip), vehicle: other 100 % of control | [1] 104 % of control | dose: 100.0 mg/kg/injection, schedule: Q01DX009 (ip), vehicle: carboxymethylcellulose (CMC) 101 % of control | dose: 200.0 mg/kg/injection, schedule: Q01DX001 (ip), vehicle: other 91 % of control | [2] 93 % of control | dose: 400.0 mg/kg/injection, schedule: Q01DX001 (ip), vehicle: other 96 % of control

CCCCCCCC/C=C\CCCCCCCCSC#N
inactive: dose: 25.0 mg/kg/injection, schedule: Q04DX002 (ip), vehicle: saline with Tween-80 97 % of control | dose: 50.0 mg/kg/injection, schedule: Q04DX002 (ip), vehicle: saline with Tween-80 106 % of control | [3] 97 % of control | [4] 100 % of control | [5] 97 % of control | [6] 103 % of control | dose: 400.0 mg/kg/injection, schedule: Q04DX002 (ip), vehicle: saline with Tween-80 87 % of control

CN(C(=O)C1C(C(=O)O)C2(Cl)C(Cl)=C(Cl)C1(Cl)C2(Cl)Cl)C1CCCCC1 (centres undefined)
inactive: [7] 110 % of control | [8] 98 % of control

OCC1OC(n2ccc3c(N4CCCCC4)ncnc32)C(O)C1O (centres undefined)
inactive: dose: 50.0 mg/kg/injection, schedule: Q01DX001 (ip), vehicle: carboxymethylcellulose (CMC) 93 % of control | dose: 100.0 mg/kg/injection, schedule: Q01DX001 (ip), vehicle: carboxymethylcellulose (CMC) 95 % of control | dose: 200.0 mg/kg/injection, schedule: Q01DX001 (ip), vehicle: carboxymethylcellulose (CMC) 98 % of control | dose: 400.0 mg/kg/injection, schedule: Q01DX001 (ip), vehicle: carboxymethylcellulose (CMC) 93 % of control

O=C(OCCO)c1ccccc1
inactive: [3] 97 % of control | [9] 106 % of control | [5] 97 % of control | [10] 95 % of control | dose: 400.0 mg/kg/injection, schedule: Q01DX009 (ip), vehicle: saline with Tween-80 95 % of control | [11] 97 % of control

COc1ccc(OC)c(CCN)c1
inactive: dose: 25.0 mg/kg/injection, schedule: Q01DX009 (ip), vehicle: saline with Tween-80 98 % of control | dose: 50.0 mg/kg/injection, schedule: Q01DX009 (ip), vehicle: saline with Tween-80 105 % of control | [3] 104 % of control | [9] 107 % of control

COC(=O)c1cc(Cl)cc(C(=O)OC)n1
inactive: [9] 100 % of control | [12] 94 % of control | [10] 103 % of control | [13] 100 % of control | [11] 99 % of control

CN1CC2(CCN(CC3COc4ccccc4O3)CC2)OC1=O (centres undefined)
inactive: dose: 50.0 mg/kg/injection, schedule: Q01DX001 (ip), vehicle: Klucel (hydroxypropylcellulose) (HPC) 93 % of control | [14] 103 % of control | [15] 117 % of control | [16] 107 % of control

O=NN1CCCNCC1
inactive: dose: 25.0 mg/kg/injection, schedule: Q01DX009 (ip), vehicle: water 104 % of control | dose: 50.0 mg/kg/injection, schedule: Q01DX009 (ip), vehicle: water 111 % of control | dose: 100.0 mg/kg/injection, schedule: Q01DX009 (ip), vehicle: water 106 % of control | dose: 200.0 mg/kg/injection, schedule: Q01DX009 (ip), vehicle: water 101 % of control | dose: 400.0 mg/kg/injection, schedule: Q01DX009 (ip), vehicle: water 112 % of control

C[N+](C)(C)CCN=C(N)N[N+](=O)[O-]
inactive: [17] 97 % of control | [9] 97 % of control | [12] 99 % of control | [10] 98 % of control | [11] 98 % of control

COc1ccc([P+](=S)SS[P+](=S)c2ccc(OC)cc2)cc1 (centres undefined)
inactive: [4] 101 % of control | [6] 97 % of control

O=[N+]([O-])CC(O)C(F)(F)C(F)(F)C(F)(F)F (centres undefined)
inactive: [18] 105 % of control | [19] 100 % of control | [20] 100 % of control

CC1CCCC(C)N1CC(O)c1ccccc1 (centres undefined)
inactive: dose: 6.25 mg/kg/injection, schedule: Q04DX003 (ip), vehicle: saline with Tween-80 94 % of control | dose: 12.5 mg/kg/injection, schedule: Q04DX003 (ip), vehicle: saline with Tween-80 97 % of control | dose: 25.0 mg/kg/injection, schedule: Q04DX003 (ip), vehicle: saline with Tween-80 97 % of control

CC(=O)Nc1ccc(OCCCCOc2ccccc2)cc1
inactive: [1] 87 % of control | [18] 103 % of control | [2] 97 % of control | [19] 100 % of control | dose: 400.0 mg/kg/injection, schedule: Q01DX009 (ip), vehicle: Klucel (hydroxypropylcellulose) (HPC) 92 % of control | [20] 97 % of control

CC1C(O)c2ccccc2OC1N1CCOCC1 (centres undefined)
inactive: dose: 50.0 mg/kg/injection, schedule: Q04DX002 (ip), vehicle: Klucel (hydroxypropylcellulose) (HPC) 96 % of control | [7] 100 % of control | [8] 93 % of control

Cc1cccc(C=O)c1
inactive: dose: 100.0 mg/kg/injection, schedule: Q01DX001 (ip), vehicle: saline 102 % of control | dose: 200.0 mg/kg/injection, schedule: Q01DX001 (ip), vehicle: saline 96 % of control | dose: 400.0 mg/kg/injection, schedule: Q01DX001 (ip), vehicle: saline 96 % of control

C[n+]1c(O)c(C(=O)CCl)n2ccccc21
inactive: [17] 94 % of control | [12] 91 % of control | [13] 92 % of control

CC(=O)COc1cccc2ccccc12
inactive: dose: 100.0 mg/kg/injection, schedule: Q01DX009 (ip), vehicle: gum acacia 100 % of control | dose: 200.0 mg/kg/injection, schedule: Q01DX009 (ip), vehicle: gum acacia 99 % of control | dose: 400.0 mg/kg/injection, schedule: Q01DX009 (ip), vehicle: gum acacia 97 % of control

CN(C)c1ccc(/C=C/C=C/C(=O)c2ccccc2)cc1
inactive: [18] 88 % of control | [19] 93 % of control | [20] 93 % of control

CN(c1ccccc1)c1cc(=O)[nH]c(=O)[nH]1
inactive: [14] 95 % of control | [15] 104 % of control | [16] 99 % of control
